Measured values: patent US7648824B2, “Method of sequencing DNA” (Qiagen GmbH, priority 2000, dated 2010)
“Also recorded” adds a separate entry of the source.

Tests used:
[1] = tested on: Enzyme mix (DNA polymerase, ATP-sulphurylase, apyrase and luciferase); assay: Preincubation of Pyrosequencing reaction mixture with nucleotide, then PPi-based sequencing with ELIDA detection; assay type: biochemical; details: for inhibition of the sequencing reaction: preincubation with 5, 10 or 20 μl nucleotide for 10 minutes at room temperature without template, compared with 0 μl; for effect of preincubation on the sequencing reaction: similar experiment, nucleotides from prototype PSQ 96 SNP Reagent kit, 2 pmol template, control 1×TE, results not shown
Procedure: (§1) In this example, the inhibitory effect of dATPαS on a PPi-based sequencing reaction with ELIDA detection (known as Pyrosequencing) was investigated by preincubating the reaction mixture in the absence of template with varying amounts of the normal (i.e. racemic) dATPαS (containing both Rp and Sp isomers), or the pure Sp isomer of dATPαS. After preincubation, template was added and a normal “Pyrosequencing™”, reaction was carried out.
(§2) The “normal” dATPαS was taken from the PSQ 96 SNP Reagent kit supplied by Pyrosequencing AB (Uppsala, SE). The pure Rp and Sp isomers were purchased from Biolog Life Science (Bremen, Germany). The reaction mixture also included Enzyme mix (DNA polymerase, ATP-sulphurylase, apyrase and luciferase) and Substrate mix (luciferin and APS), from the PSQ 96 SNP Reagent kit supplied by Pyrosequencing AB. The template was an oligonucleotide (interactiva, Ulm, Germany) from which the following sequence could be read after annealing of a sequencing primer: […].
The pure isomer samples were diluted to the same concentration as the dATPαS in the PSQ 96 SNP Reagent kit. For preincubation, 0, 5, 10 or 20 μl of each A-sample (normal dATPαS or the Rp or Sp isomer) was added to a mixture containing 5 μl Enzyme mix, 5 μl Substrate mix in a total volume of 45 μl. The reaction was carried out in the 96 well plate delivered with the PSQ 96 SNP Reagent kit. The reaction was incubated at room temperature, in the dark for 10 minutes. After this, […] in 5 μl annealed oligonucleotide template was added to each well and the plate was transferred […] the PSQ 96 instrument, where a normal “Pyrosequencing™” reaction was carried out (omitting addition of Enzyme and Substrate mixes).
A similar experiment was also performed where the preincubation was carried out comparing “normal” dATPαS with dCTP, dGTP or dTTP, all from a prototype to the PSQ 96 SNP Reagent kit. As control, only 1×TE (dilution buffer for the dNTPs) was added. The template was the same as above, but 2 pmol were added to each well.

apyrase [2] = target: T1, apyrase (Solanum tuberosum, UniProt P80595); assay: Preincubation of Pyrosequencing reaction mixture with nucleotide, signal width; assay type: biochemical; details: preincubation with 5, 10 or 20 μl nucleotide for 10 minutes, compared with 0 μl
T1 construct: purchased Sigma Chemical Co., USA
T1 sequence (P80595 1-454): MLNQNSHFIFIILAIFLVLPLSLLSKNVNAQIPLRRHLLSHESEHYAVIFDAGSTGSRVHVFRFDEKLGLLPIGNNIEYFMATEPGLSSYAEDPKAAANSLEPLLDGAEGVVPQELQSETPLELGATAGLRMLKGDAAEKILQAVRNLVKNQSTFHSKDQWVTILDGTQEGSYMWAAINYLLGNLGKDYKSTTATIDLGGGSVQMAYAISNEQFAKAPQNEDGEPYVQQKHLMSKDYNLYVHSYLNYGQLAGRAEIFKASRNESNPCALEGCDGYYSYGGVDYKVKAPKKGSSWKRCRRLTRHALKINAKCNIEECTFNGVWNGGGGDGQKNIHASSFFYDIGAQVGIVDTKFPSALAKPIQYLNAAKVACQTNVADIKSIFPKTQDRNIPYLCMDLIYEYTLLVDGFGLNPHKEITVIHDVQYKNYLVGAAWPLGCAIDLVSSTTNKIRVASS
Procedure: as §1, §2
(§3) The pure isomer samples were diluted to the same concentration as the dATPαS in the PSQ 96 SNP Reagent kit. For preincubation, 0, 5, 10 or 20 μl of each A-sample (normal dATPαS or the Rp or Sp isomer) was added to a mixture containing 5 μl Enzyme mix, 5 μl Substrate mix in a total volume of 45 μl. The reaction was carried out in the 96 well plate delivered with the PSQ 96 SNP Reagent kit. […]

luciferase [3] = target: T2, luciferase (Photinus pyralis, UniProt P08659); assay: Preincubation of Pyrosequencing reaction mixture with nucleotide, signal intensity; assay type: biochemical; details: preincubation with 5, 10 or 20 μl nucleotide for 10 minutes, compared with 0 μl
T2 construct: purchased BioThema, Dalaro, Sweden
Procedure: as §1, §2, §3

luciferase [4] = target: T2, luciferase; assay: Model system simulating PPi-based sequencing: nucleotide plus ATP added to luciferase/apyrase/substrate mixture, light signal height; assay type: biochemical; details: for luciferase activity (signal intensity, height of ascending curve): 50 additions of nucleotide + 2 μM ATP in 50 minutes, 100 ng luciferase, 50 mU apyrase, room temperature
Procedure: (§4) In this Example a series of 5 experiments were carried out to examine the inhibitory effect of each of the 5 nucleotides (dATP, dATPαS, dCTP, dGTP and dTTP) on the enzymes apyrase and luciferase. A model system was used which simulated the effects of these enzymes in a PPi-based sequencing reaction. Each nucleotide was added to the luciferase/apyrase/substrate mixture, along with ATP (to provide a substrate for luciferase), and the effect of each nucleotide addition on the enzymes was monitored by observing the light signals generated from the luciferase reaction.
(§5) The reactions were performed at room temperature in a volume of 50 μl on an automated prototype Pyrosequencer instrument (kindly supplied by Pyrosequencing AB, Uppsala, Sweden). The reaction mixture contained: 50 mU apyrase (Sigma Chemical Co., USA), 100 ng purified luciferase (BioThema, Dalaro, Sweden), 0.1 M Tris-acetate (pH 7.75), 0.5 mM EDTA, 5 mM magnesium acetate, 0.1% bovine serum albumin, 1 mM dithiothreitol, 0.4 mg/ml polyvinylpyrrolidone (360 000), and 100 μg/ml D-luciferin (BioThema). An ATP concentration of 2 μM was added to different nucleotides (dATP, dATPαS, dCTP, dGTP and dTTP), as shown in FIGS. 1 to 5 to follow the activity of luciferase and apyrase. For investigation of the effect of Shrimp Alkaline Phosphatase (Amersham Pharmacia Biotech, Uppsala, Sweden), two units of this enzyme were added to the reaction mixture—see further below. In total, 50 additions of nucleotide and ATP mixture were performed in 50 minutes. The output of light resulting from nucleotide incorporation was detected by a CCD-camera. The data was obtained in Excel format.

apyrase [5] = target: T1, apyrase; assay: Model system simulating PPi-based sequencing: nucleotide plus ATP added to luciferase/apyrase/substrate mixture, slope of descending curve / signal width; assay type: biochemical; details: for apyrase activity (slope of descending curve, signal width): 50 additions of nucleotide + 2 μM ATP in 50 minutes, 100 ng luciferase, 50 mU apyrase, room temperature
Procedure: as §4, §5

luciferase [6] = target: T2, luciferase; details: literature report, Ford et al., 1998; cited from earlier work
[7] = 0.7 mM dATPαS + 2 μM ATP, 50 cycles, 2 U alkaline phosphatase added

T2 sequence (P08659 whole entry): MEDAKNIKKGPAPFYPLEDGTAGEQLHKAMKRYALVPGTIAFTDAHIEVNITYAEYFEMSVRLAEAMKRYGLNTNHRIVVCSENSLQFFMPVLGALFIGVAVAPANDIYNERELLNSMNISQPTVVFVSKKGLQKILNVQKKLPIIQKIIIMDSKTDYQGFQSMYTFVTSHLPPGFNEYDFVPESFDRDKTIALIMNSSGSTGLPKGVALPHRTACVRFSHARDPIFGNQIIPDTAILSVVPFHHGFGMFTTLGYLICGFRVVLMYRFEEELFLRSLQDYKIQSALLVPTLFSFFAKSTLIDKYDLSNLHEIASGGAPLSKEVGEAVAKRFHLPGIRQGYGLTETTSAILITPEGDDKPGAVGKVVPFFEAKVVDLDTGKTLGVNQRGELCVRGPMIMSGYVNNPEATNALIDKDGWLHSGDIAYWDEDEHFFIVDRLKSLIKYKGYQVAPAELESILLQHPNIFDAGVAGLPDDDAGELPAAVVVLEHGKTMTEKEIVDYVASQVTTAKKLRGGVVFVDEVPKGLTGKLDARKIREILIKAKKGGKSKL

SMILES	inhibition of the sequencing reaction [1]	luciferase activity (signal intensity, height of ascending curve) (luciferase [4])	apyrase activity (slope of descending curve, signal width) (apyrase [5])	effect of preincubation on the sequencing reaction [1]	other results
Nc1ncnc2c1ncn2[C@H]1C[C@H](O)[C@@H](COP(O)(=S)OP(=O)(O)OP(=O)(O)O)O1 (single isomer, unassigned) [Rp isomer]	Even more pronounced inhibition; also recorded: severe effect on all enzymes involved in the ELIDA detection	–	–	–	apyrase inhibition (signal width, signal definition) (apyrase [2]): increased signal width; luciferase inhibition (signal intensity, peak height) (luciferase [3]): signal intensity is decreased
Cc1cn([C@H]2C[C@H](O)[C@@H](COP(=O)(O)OP(=O)(O)OP(=O)(O)O)O2)c(=O)[nH]c1=O [dTTP, deoxythymidine triphosphate]	–	do not inhibit luciferase or apyrase	do not inhibit luciferase or apyrase	no negative effect	–
Nc1ncnc2c1ncn2[C@H]1C[C@H](O)[C@@H](COP(=O)(O)OP(=O)(O)OP(=O)(O)O)O1 [dATP, deoxyadenosine triphosphate]	–	relatively linear decrease in signal intensity	–	–	–
Nc1ncnc2c1ncn2[C@H]1C[C@H](O)[C@@H](COP(=O)(O)O)O1 [dAMP]	–	–	–	–	inhibition of luciferase (luciferase [6]): inhibits luciferase
Nc1ccn([C@H]2C[C@H](O)[C@@H](COP(=O)(O)OP(=O)(O)OP(=O)(O)O)O2)c(=O)n1 [dCTP, deoxycytidine triphosphate]	–	do not inhibit luciferase or apyrase	do not inhibit luciferase or apyrase	no negative effect	–
Nc1nc2c(ncn2[C@H]2C[C@H](O)[C@@H](COP(=O)(O)OP(=O)(O)OP(=O)(O)O)O2)c(=O)[nH]1 [dGTP, deoxyguanosine triphosphate]	–	do not inhibit luciferase or apyrase	do not inhibit luciferase or apyrase	no negative effect	–
Nc1ncnc2c1ncn2[C@H]1C[C@H](O)[C@@H](COP(O)(=S)OP(=O)(O)OP(=O)(O)O)O1 (single isomer, unassigned) [Sp isomer]	significantly reduced	–	–	–	–
Nc1ncnc2c1ncn2[C@H]1C[C@H](O)[C@@H](COP(O)(=S)OP(=O)(O)OP(=O)(O)O)O1 (stereo partly drawn) [dATPαS, deoxyadenosine α-thiotriphosphate]	progressively severe inhibition	relatively linear decrease in signal intensity	drastically inhibited in later cycles	severe negative effect	luciferase activity (signal intensity) in the presence of alkaline phosphatase (luciferase [4]; [7]): no inhibition of luciferase; decrease in signal intensity after 50 cycles, less than that obtained with dATP (luciferase [4]; 0.7 mM nucleotide + 2 μM ATP, after 50 cycles, compared with dATP (FIG. 1)): 50%; apyrase activity (signal width) in the presence of alkaline phosphatase (apyrase [5]; [7]): lack of apyrase inhibition; apyrase inhibition (signal width, signal definition) (apyrase [2]): apyrase inhibition is particularly occurring; luciferase inhibition (signal intensity, peak height) (luciferase [3]): Some loss of signal intensity
